Measured values reported in patent US20170204126A1, “MOLYBDENUM- AND TUNGSTEN-CONTAINING PRECURSORS FOR THIN FILM DEPOSITION” (L'Air Liquide, Société Anonyme pour l'Etude et …, priority 2014, published 2017).
Each block holds one compound with its values, some of them ahead of it.

Key:
[1] = Solubility of the compound in common solvents; conditions: for Solubility in alkanes and toluene: at room temperature
Protocol: Measurement Conditions: • Sample weight: 26.00 mg • Atmosphere: Nitrogen, 1 atmospheric pressure • Heating rate: 10° C.·min^−1 • Solubility of the compound in common solvents
Measurement Conditions: • Sample weight: 24.57 mg • Atmosphere: Nitrogen, 1 atmospheric pressure • Heating rate: 10° C.·min^−1 • Solubility of the compound in common solvents
Measurement Conditions: • Sample weight: 21.19 mg • Atmosphere: Nitrogen, 1 atmospheric pressure • Heating rate: 10° C.·min^−1 • Solubility of the compound in common solvents
Measurement Conditions: • Sample weight: 23.09 mg • Atmosphere: Nitrogen, 1 atmospheric pressure • Heating rate: 10° C.·min^−1 • Solubility of the compound in common solvents
Measurement Conditions: • Sample weight: 19.79 mg • Atmosphere: Nitrogen, 1 atmospheric pressure • Heating rate: 10° C.·min^−1 • Solubility of the compound in common solvents
Measurement Conditions: • Sample weight: 27.43 mg • Atmosphere: Nitrogen, 1 atmospheric pressure • Heating rate: 10° C.·min^−1 • Solubility of the compound in common solvents

[2] = Thermal Stability Test (storage at 50° C.); assay type: physicochemical
Protocol: The product was stored at 50° C. for 14 and 44 days. The W(OsBu)6 content after 14 days was 1.1 atomic %. The W(OsBu)6 content after 44 days was 1.2 atomic %.

Compound: tungsten oxo sec-butoxide [W(═O)(OsBu)4]
W(OsBu)6 content after storage ([2]; stored at 50° C. for 14 days): 1.1 atomic %
W(OsBu)6 content after storage ([2]; stored at 50° C. for 44 days): 1.2 atomic %

Compound: CC(C)C(C)[O][W](=[O])([O]C(C)C(C)C)([O]C(C)C(C)C)[O]C(C)C(C)C (stereo not shown) [W(═O)(OCH(CH3)(CH(CH3)2))4]
Vapor pressure (Vapor pressure; at 147° C.): 1 Torr
Solubility in common organic solvents ([1]; hexane, acetone, chloroform, and/or toluene): miscible

Compound: CC(C)C[O][W](=[O])([O]CC(C)C)([O]CC(C)C)[O]CC(C)C [W(═O)(OiBu)4, W(═O)(OCH2CH(CH3)2)4]
Solubility in alkanes and in toluene ([1]; toluene up to 80° C.): very low solubility

Second part, the compound after the results:

Solubility in alkanes and toluene [1]: very low solubility
Compound: CCCC[O][W](=[O])([O]CCCC)([O]CCCC)[O]CCCC [W(═O)(OnBu)4]

Vapor pressure (Vapor pressure; at 103° C.): 1 Torr
Solubility in alkanes ([1]; alkanes): very low solubility
Solubility in toluene ([1]; toluene at 60° C.): soluble
Compound: CC(C)[O][W](=[O])([O]C(C)C)([O]C(C)C)[O]C(C)C [W(═O)(OiPr)4, W(═O)(OCH(CH3)2)4]

Solubility in alkanes and toluene [1]: very low solubility
Compound: CCC[O][W](=[O])([O]CCC)([O]CCC)[O]CCC [W(═O)(OnPr)4]
